# Like-named read-outs stand apart in the source and are kept apart here.
# Assays:
# [1] = pH 7.4
# Procedure: Test compounds were prepared as 0.5 mM solutions in 50:50 acetonitrile:water and analyzed by reversed-phase HPLC-UV (wavelength 254 nm) using a Phenomenex Luna C18 100 Å 150 × 4.6 mm 5 μm column with a gradient of aqueous phase (50 mM ammonium acetate, pH 7.4) and mobile phase (acetonitrile) as described.[41],[42]
# in vitro = conditions: PAMPA, pH 7.4
# Procedure: (§1) In vitro ADME experiments were performed exactly as reported.[38]−[40]
# [2] = mouse
# Procedure: Murine pharmacokinetic studies were performed exactly as reported.[40]
# physchem = conditions: aqueous medium at pH 7.4, pH 7.4
# Procedure: as §1
Compound,CHI-logDpH7.4 [1],Papp (in vitro),also measured
"COc1ccc(-c2noc(C(=O)NCCc3ccc(C(=O)N4CCC4)cc3)n2)cc1OC [compound 14, N-[2-[4-(Azetidine-1-carbonyl)phenyl]ethyl]-3-(3,4-dimethoxyphenyl)-1,2,4-oxadiazole-5-carboxamide]",2.1,7.1 ×10⁻⁶ cm/s,–
"COc1ccc(-c2n[nH]c(C(=O)NCCc3ccc(C(=O)N4CCC4)cc3)n2)cc1OC [compound 101, N-(4-(Azetidine-1-carbonyl)phenethyl)-3-(3,4-dimethoxyphenyl)-1H-1,2,4-triazole-5-carboxamide]",1.3,–,–
"O=C(NCCc1ccccc1)c1nc(-c2ccccc2)no1 [compound 4, 3-Phenyl-N-(2-phenylethyl)-1,2,4-oxadiazole-5-carboxamide]",3.2,–,–
"O=C(NCCc1ccc(C(=O)N2CCC2)cc1)c1nc(-c2ccc3cn[nH]c3c2)no1 [compound 66, N-(4-(Azetidine-1-carbonyl)phenethyl)-3-(1H-indazol-6-yl)-1,2,4-oxadiazole-5-carboxamide]",1.6,5.5 ×10⁻⁶ cm/s,–
COc1ccc(CCNC(=O)c2nc(-c3ccccc3)no2)cc1OC [compound 107],2.8,–,–
"COc1ccc(-c2noc(C(=O)NCCc3ccc(C(=O)N4CC(OC)C4)cc3)n2)cc1OC [compound 15, 3-(3,4-Dimethoxyphenyl)-N-(4-(3-methoxyazetidine-1-carbonyl)phenethyl)-1,2,4-oxadiazole-5-carboxamide]",2.1,–,AUC0–480 ([2]; IV 3 mg/kg): 56 µg·min/mL; T1/2 ([2]; IV 3 mg/kg): 18 min; Vdss ([2]; IV 3 mg/kg): 1.1 L/kg; AUC0–480 ([2]; PO 200 mg/kg): 48 µg·min/mL; Cmax ([2]; PO 200 mg/kg): 151 ng/mL; F ([2]; PO 200 mg/kg): 1.5%; Tmax ([2]; PO 200 mg/kg): 120 min
"O=C(NCCc1ccc(C(=O)N2CCC2)cc1)c1nc(-c2ccc3cc[nH]c3c2)no1 [compound 65, N-(4-(Azetidine-1-carbonyl)phenethyl)-3-(1H-indol-6-yl)-1,2,4-oxadiazole-5-carboxamide]",2.3,4.4 ×10⁻⁶ cm/s,–
"COc1ccc(-c2noc(C(=O)NCCc3ccc(C(=O)N4CC(F)(F)C4)cc3)n2)cc1OC [compound 17, N-(4-(3,3-Difluoroazetidine-1-carbonyl)phenethyl)-3-(3,4-dimethoxyphenyl)-1,2,4-oxadiazole-5-carboxamide]",2.6,6.3 ×10⁻⁶ cm/s,–
"COc1ccc(-c2noc(C(=O)NCCc3cccnc3)n2)cc1OC [compound 5, 3-(3,4-Dimethoxyphenyl)-N-[2-(3-pyridyl)ethyl]-1,2,4-oxadiazole-5-carboxamide]",1.8,7.7 ×10⁻⁶ cm/s,–
"COc1cccc(-c2noc(C(=O)NCCc3ccc(C(=O)N4CCC4)cc3)n2)c1 [compound 67, N-(4-(Azetidine-1-carbonyl)phenethyl)-3-(3-methoxyphenyl)-1,2,4-oxadiazole-5-carboxamide]",2.4,10.1 ×10⁻⁶ cm/s,–
"COc1ccc(-c2noc(C(=O)NCCc3ccc(C(N)=O)cc3)n2)cc1OC [compound 11, N-[2-(4-Carbamoylphenyl)ethyl]-3-(3,4-dimethoxyphenyl)-1,2,4-oxadiazole-5-carboxamide]",1.7,2.9 ×10⁻⁶ cm/s,–
"COc1ccc(-c2noc(C(=O)NC(C#N)Cc3ccc(C(=O)N4CC5(COC5)C4)cc3)n2)cc1OC (stereo not drawn) [compound 44, N-(2-(4-(2-Oxa-6-azaspiro[3.3]heptane-6-carbonyl)phenyl)-1-cyanoethyl)-3-(3,4-dimethoxyphenyl)-1,2,4-oxadiazole-5-carboxamide]",2.1,0.6 ×10⁻⁶ cm/s,AUC0–480 ([2]; PO 10 mg/kg): 5 µg·min/mL; Cmax ([2]; PO 10 mg/kg): 56 ng/mL; Tmax ([2]; PO 10 mg/kg): 300 min
"COc1ccc(-c2nc(C(=O)NCCc3ccccc3)no2)cc1OC [compound 90, 5-(3,4-Dimethoxyphenyl)-N-phenethyl-1,2,4-oxadiazole-3-carboxamide]",2.9,–,–
COc1ccc(-c2noc(C(=O)NCCN3CCOCC3)n2)cc1OC [compound 108],1.4,–,–
"COc1ccc(-c2noc(C(=O)NC(C#N)Cc3ccc(C(=O)N4CC(OC)C4)cc3)n2)cc1OCC1(O)CC1 (stereo not drawn) [compound 45, N-[1-Cyano-2-[4-(3-methoxyazetidine-1-carbonyl)phenyl]ethyl]-3-[3-[(1-hydroxycyclopropyl)methoxy]-4-methoxyphenyl]-1,2,4-oxadiazole-5-carboxamide]",–,–,solubility (physchem): 152 µM
"COc1ccc(-c2noc(C(=O)NC(C#N)Cc3ccc(C(=O)N4CCC4)cc3)n2)cc1OC (stereo not drawn) [compound 33, N-(2-(4-(Azetidine-1-carbonyl)phenyl)-1-cyanoethyl)-3-(3,4-dimethoxyphenyl)-1,2,4-oxadiazole-5-carboxamide]",2.1,2.8 ×10⁻⁶ cm/s,–
"O=C(NCCc1ccc(C(=O)N2CCC2)cc1)c1nc(-c2ccc3nc[nH]c3c2)no1 [compound 63, N-(4-(Azetidine-1-carbonyl)phenethyl)-3-(1H-benzo[d]imidazol-6-yl)-1,2,4-oxadiazole-5-carboxamide]",1.3,0.7 ×10⁻⁶ cm/s,–
COc1ccc(-c2noc(C(=O)NCCc3ccccc3)n2)cc1OC [compound 106],–,–,solubility (physchem): 51 µM

Compound,CHI-logDpH7.4 [1],Papp (in vitro),also measured
"COc1ccc(-c2noc(C(=O)NC[C@H](C)c3ccccc3)n2)cc1OC [compound 8, 3-(3,4-Dimethoxyphenyl)-N-[(2R)-2-phenylpropyl]-1,2,4-oxadiazole-5-carboxamide]",3.3,5.5 ×10⁻⁶ cm/s,–
"COc1ccc(-c2noc(C(=O)NCCc3ccc(C(=O)N4CC(F)C4)cc3)n2)cc1OC [compound 16, 3-(3,4-Dimethoxyphenyl)-N-(4-(3-fluoroazetidine-1-carbonyl)phenethyl)-1,2,4-oxadiazole-5-carboxamide]",2.2,8.5 ×10⁻⁶ cm/s,–
"COc1ccc(-c2noc(C(=O)NC(C#N)Cc3ccccc3)n2)cc1OC (stereo not drawn) [compound 38, N-(1-Cyano-2-phenylethyl)-3-(3,4-dimethoxyphenyl)-1,2,4-oxadiazole-5-carboxamide]",3.1,7.2 ×10⁻⁶ cm/s,–
"COc1ccc(-c2noc(C(=O)NCCc3ccc(C(=O)N4CCC4)nc3)n2)cc1OC [compound 25, N-(2-(6-(Azetidine-1-carbonyl)pyridin-3-yl)ethyl)-3-(3,4-dimethoxyphenyl)-1,2,4-oxadiazole-5-carboxamide]",1.9,5.4 ×10⁻⁶ cm/s,–
"COc1ccc(CCN(C)C(=O)c2nc(-c3ccc(OC)c(OC)c3)no2)cc1OC [compound 51, 3-(3,4-Dimethoxyphenyl)-N-[2-(3,4-dimethoxyphenyl)ethyl]-N-methyl-1,2,4-oxadiazole-5-carboxamide]",2.6,–,–
"COc1ccc(CCNC(=O)c2nc(-c3ccc(OC)c(OC)c3)no2)cc1OC [compound 50, 3-(3,4-dimethoxyphenyl)-N-[2-(3,4-dimethoxyphenyl)ethyl]-1,2,4-oxadiazole-5-carboxamide]",2.5,7.4 ×10⁻⁶ cm/s,–
"COc1ccc(-c2noc(C(=O)NCCc3ccc(C(=O)N4CCC4)cc3)n2)cc1F [compound 61, N-(4-(Azetidine-1-carbonyl)phenethyl)-3-(3-fluoro-4-methoxyphenyl)-1,2,4-oxadiazole-5-carboxamide]",2.6,–,–
"COc1ccc(-c2noc(C(=O)NCCc3ccc(C(=O)N4CC(OC)C4)cc3)n2)cc1OC1CCC1 [compound 78, 3-[3-(Cyclobutoxy)-4-methoxy-phenyl]-N-[2-[4-(3-methoxyazetidine-1-carbonyl)phenyl]ethyl]-1,2,4-oxadiazole-5-carboxamide]",2.9,–,–
"COc1ccc(-c2noc(C(=O)NCCc3ccc(C(=O)N4CC(OC)C4)cc3)n2)cc1OCC1(O)CC1 [compound 80, 3-(3-((1-Hydroxycyclopropyl)methoxy)-4-methoxyphenyl)-N-(4-(3-methoxyazetidine-1-carbonyl)phenethyl)-1,2,4-oxadiazole-5-carboxamide]",–,–,AUC0–480 ([2]; IV 3 mg/kg): 81 µg·min/mL; T1/2 ([2]; IV 3 mg/kg): 24 min; Vdss ([2]; IV 3 mg/kg): 0.9 L/kg; AUC0–480 ([2]; PO 10 mg/kg): 4 µg·min/mL; Cmax ([2]; PO 10 mg/kg): 61 ng/mL; F ([2]; PO 10 mg/kg): 1.5%; Tmax ([2]; PO 10 mg/kg): 30 min
"COc1cc(-c2noc(C(=O)NCCc3ccc(C(=O)N4CCC4)cc3)n2)ccc1F [compound 62, N-(4-(Azetidine-1-carbonyl)phenethyl)-3-(4-fluoro-3-methoxyphenyl)-1,2,4-oxadiazole-5-carboxamide]",2.6,–,–
"O=C(NCCc1ccc(C(=O)N2CCC2)cc1)c1nc(-c2ccc3ccoc3c2)no1 [compound 64, N-(4-(Azetidine-1-carbonyl)phenethyl)-3-(benzofuran-6-yl)-1,2,4-oxadiazole-5-carboxamide]",2.5,7 ×10⁻⁶ cm/s,–
"COc1ccc(-c2noc(C(=O)NCC(C)(C)c3ccccc3)n2)cc1OC [compound 7, 3-(3,4-Dimethoxyphenyl)-N-(2-methyl-2-phenyl-propyl)-1,2,4-oxadiazole-5-carboxamide]",3.7,–,–
"CNC(=O)c1ccc(CCNC(=O)c2nc(-c3ccc(OC)c(OC)c3)no2)cc1 [compound 12, 3-(3,4-Dimethoxyphenyl)-N-[2-[4-(methylcarbamoyl)phenyl]ethyl]-1,2,4-oxadiazole-5-carboxamide]",1.8,4.8 ×10⁻⁶ cm/s,–
"COc1ccc(-c2noc(C(=O)NCCc3ccc(C(=O)O)cc3)n2)cc1OC [compound 6, 4-[2-[[3-(3,4-Dimethoxyphenyl)-1,2,4-oxadiazole-5-carbonyl]amino]ethyl]benzoic Acid]",–,0.6 ×10⁻⁶ cm/s,–
"COc1cccc(CCNC(=O)c2nc(-c3ccc(OC)c(OC)c3)no2)c1 [compound 19, 3-(3,4-Dimethoxyphenyl)-N-[2-(3-methoxyphenyl)ethyl]-1,2,4-oxadiazole-5-carboxamide]",2.9,–,–
"COc1ccc(-c2noc(C(=O)NCCc3ccc(C(=O)N4CC(OC)C4)cc3)n2)cc1OC1CC1 [compound 79, 3-(3-Cyclopropoxy-4-methoxyphenyl)-N-(4-(3-methoxyazetidine-1-carbonyl)phenethyl)-1,2,4-oxadiazole-5-carboxamide]",2.6,4.6 ×10⁻⁶ cm/s,–
"COc1ccc(-c2noc(CNCCc3ccccc3)n2)cc1OC [compound 53, N-[[3-(3,4-Dimethoxyphenyl)-1,2,4-oxadiazol-5-yl]methyl]-2-phenyl-ethanamine]",2.9,–,–

# Source: article PMC10683028 (Journal of Medicinal Chemistry, 2023)
